{
  "source": "patent US20260102413A1",
  "about": "“TREATING PAIN ASSOCIATED WITH CENTRAL SENSITIZATION” (Medicon Pharmaceuticals, Inc., priority 2022, published 2026)",
  "key": {"[1]": {"tested_on": "mice with paclitaxel-induced neuropathic pain (CIPN)", "test": "von Frey paw withdrawal threshold (mechanical allodynia), paclitaxel-induced CIPN / central sensitization, treatment of established pain, topical test compounds", "assay_type": "in vivo, mouse", "conditions": "paclitaxel mice; PS hydrogel 5%, sulindac 0.7% topical hind paws 3x/day from day 0; lidocaine 5% cream once 30 min before; pregabalin 10 mg/kg oral once 1 h before; day 14", "protocol": "Paw withdrawn, licking or shaking were considered positive responses.\n(§1) The first doses were administered 5 days after the last administration of paclitaxel (i.e., at day 0).\nThe PWT test was performed prior to the administration of paclitaxel (day −8) to establish the threshold in mice without neuropathic pain associated with CIPN (the value shown is an average of the PWT in all groups at day −8).\nPain associated with CIPN was established in line with the experiments disclosed herein. Mice were treated with naproxen 2.4% (equimolar to PN 5%), aspirin 1.7% (equimolar to PA2 5%); or ibuprofen 2.5% (equimolar to PI 5%) or vehicle applied topically to both hind paws 3×/day for 14 days.\nCIPN was induced in mice with chemotherapeutic agents using established protocols (Carozzi et al, 2010; Currie et al, 2019; Eldridge et al, 2020).\nThe first doses were administered 1 day after the last administration of paclitaxel (i.e., at day 0).\nas §1\nThe PWT test was performed on day 21, at the end of the experiment, but was also additionally determined on day 14 for LXIX."}, "[2]": {"tested_on": "BALB/c mice infected with HSV-1 KOS strain (PHN)", "assay_type": "in vivo, mouse", "conditions": "second experiment; sulindac 5% gel on both hind paws 3x/day for three days", "protocol": "PHN was induced in mice by infecting them with the HSV-1 KOS strain virus and following established protocols (Ou et al, Front Immunol, 14, 1026269, 2023; Takasaki et al, Anesthesiology, 96 (5), 1168-74, 2002).\n; Reckitt Benckiser). Three days later, HSV-1 (10^6 PFUs in 20 μl PBS) was inoculated on the shin of the right hind paw (5×5 mm) after scarification with sandpaper. The virus was applied directly to the scarified area. The contralateral hind paw was without inoculation. Mock infection was performed using the same virus inactivated by heating at 60° C. for 1 h.\nIn a second experiment, the effect of the parent compound, sulindac, was tested in the same mouse model. Five days post-inoculation, sulindac (as a 5% gel), or vehicle control were administered topically onto both hind paws of mice three times a day for three days.\nPHN was induced in mice by infecting them with the HSV-1 KOS strain virus in line with the previous Examples.\nFive days post-inoculation, NO-sulindac (Formula XLIV) (as a 5% gel), or vehicle control were administered topically onto both hind paws of mice three times a day for three days."}},
  "data": [
    {"molecule": "CC1=C(CC(=O)O)c2cc(F)ccc2/C1=C\\c1ccc([S+](C)[O-])cc1", "note": "(centres unmarked) [sulindac, reference compound]", "values": [
      {"measurement": "PWT, g Mean ± SEM", "setting": "[1]", "value": "0.62 ± 0.05", "unit": "g"},
      {"measurement": "PWT, g Mean ± SEM, Post-inoculation and treatment", "setting": "[2]", "value": "0.56 ± 0.06", "unit": "g"}
    ]}
  ]
}
